Reference: PubChem BioAssay (NCI)
Several values for one entry are separate records, joined by “and”; a condition that tells them apart may be missing. Identical values can stand only once.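 Interpolation was linear, between the two tested concentrations surrounding the appropriate level; five concentrations were tested over 48 hours in 96-well plates. GI50 marks 50% less growth. TGI: total growth inhibition.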

How the values were obtained:
Experiment in all cases: growth of human tumour cells (NCI), 48 h
NCI-H226 lung = system: NCI-H226 lung
SF-268 CNS = system: SF-268 CNS
UACC-257 melanoma = system: UACC-257 melanoma
RPMI-8226 leukemia = system: RPMI-8226 leukemia
786-0 renal = system: 786-0 renal
SR leukemia = system: SR leukemia
OVCAR-8 ovarian = system: OVCAR-8 ovarian
M14 melanoma = system: M14 melanoma
SW-620 colon = system: SW-620 colon
MALME-3M melanoma = system: MALME-3M melanoma

COc1ccc(C(C#N)NC23CC4CC(CC(C4)C2)C3)cc1 (centres undefined)
TGI (NCI-H226 lung): > 100 µM | TGI (SF-268 CNS): > 100 µM | TGI (UACC-257 melanoma): > 100 µM | TGI (RPMI-8226 leukemia): > 100 µM | TGI (786-0 renal): > 100 µM | TGI (SR leukemia): > 100 µM | TGI (OVCAR-8 ovarian): > 100 µM | TGI (M14 melanoma): > 100 µM | TGI (SW-620 colon): > 100 µM | TGI (MALME-3M melanoma): > 100 µM

O=C1NC(=S)S/C1=C/c1ccc2c(c1)OCO2
GI50 (NCI-H226 lung): > 100 µM | TGI (NCI-H226 lung): > 100 µM | GI50 (SF-268 CNS): > 100 µM | TGI (SF-268 CNS): > 100 µM | GI50 (UACC-257 melanoma): > 100 µM | TGI (UACC-257 melanoma): > 100 µM | GI50 (RPMI-8226 leukemia): > 100 µM | TGI (RPMI-8226 leukemia): > 100 µM | GI50 (786-0 renal): > 100 µM | TGI (786-0 renal): > 100 µM | GI50 (SR leukemia): > 100 µM | TGI (SR leukemia): > 100 µM | GI50 (OVCAR-8 ovarian): > 100 µM | TGI (OVCAR-8 ovarian): > 100 µM | GI50 (M14 melanoma): > 100 µM | TGI (M14 melanoma): > 100 µM | GI50 (SW-620 colon): > 100 µM | TGI (SW-620 colon): > 100 µM | GI50 (MALME-3M melanoma): 23 µM | TGI (MALME-3M melanoma): > 100 µM

NCCCNCCS
TGI (NCI-H226 lung): > 100 µM | TGI (SF-268 CNS): > 100 µM | TGI (UACC-257 melanoma): > 100 µM | GI50 (RPMI-8226 leukemia): > 100 µM and 20.6 µM | TGI (RPMI-8226 leukemia): > 100 µM | GI50 (786-0 renal): > 100 µM and 49.5 µM | TGI (786-0 renal): > 100 µM | GI50 (SR leukemia): > 100 µM and 37 µM | TGI (SR leukemia): > 100 µM | TGI (OVCAR-8 ovarian): > 100 µM | TGI (M14 melanoma): > 100 µM | GI50 (SW-620 colon): > 100 µM and 46.3 µM | TGI (SW-620 colon): > 100 µM | TGI (MALME-3M melanoma): > 100 µM

Cc1ccc(S(=O)(=O)N/N=C2\CCCCC23CCC(=O)NC3)cc1 (centres undefined)
TGI (NCI-H226 lung): > 100 µM | TGI (SF-268 CNS): > 100 µM | TGI (UACC-257 melanoma): > 100 µM | TGI (RPMI-8226 leukemia): > 100 µM | TGI (786-0 renal): > 100 µM | TGI (SR leukemia): > 100 µM | TGI (OVCAR-8 ovarian): > 100 µM | TGI (M14 melanoma): > 100 µM | TGI (SW-620 colon): > 100 µM | TGI (MALME-3M melanoma): > 100 µM

Nc1n[nH]c2cccc(C#Cc3cccc(NC(=O)c4cccc(C(F)(F)F)c4)c3)c12
GI50 (NCI-H226 lung): 0.86 µM | TGI (NCI-H226 lung): 20.3 µM | GI50 (SF-268 CNS): 3.82 µM | TGI (SF-268 CNS): 16.3 µM | GI50 (UACC-257 melanoma): 4.3 µM | TGI (UACC-257 melanoma): 15.8 µM | GI50 (RPMI-8226 leukemia): 3.44 µM | TGI (RPMI-8226 leukemia): 21.5 µM | GI50 (786-0 renal): 3.03 µM | TGI (786-0 renal): 8.74 µM | GI50 (SR leukemia): 3.95 µM | TGI (SR leukemia): 55 µM | GI50 (OVCAR-8 ovarian): 4.82 µM | TGI (OVCAR-8 ovarian): 16.6 µM | GI50 (M14 melanoma): 1.88 µM | TGI (M14 melanoma): 10 µM | GI50 (SW-620 colon): 3.22 µM | TGI (SW-620 colon): 19.5 µM | GI50 (MALME-3M melanoma): 0.446 µM | TGI (MALME-3M melanoma): 10.9 µM

CNC(=O)OCc1nc(SSC(C)(C)C)n(C)c1COC(=O)NC
TGI (NCI-H226 lung): 28.3 µM | TGI (SF-268 CNS): 16.7 µM | TGI (UACC-257 melanoma): 7.64 µM | TGI (RPMI-8226 leukemia): 8.92 µM | TGI (786-0 renal): 9.12 µM | TGI (SR leukemia): 5.54 µM | TGI (OVCAR-8 ovarian): 5.35 µM | TGI (M14 melanoma): 4.13 µM | TGI (SW-620 colon): 3.67 µM | TGI (MALME-3M melanoma): 3.76 µM

CCN(CC)CCCC(CCl)Nc1ccnc2cc(Cl)ccc12 (centres undefined)
GI50 (NCI-H226 lung): 34.7 µM and 3.99 µM | TGI (NCI-H226 lung): 85.2 µM and > 39.1 µM | GI50 (SF-268 CNS): 17.1 µM and 21.6 µM | TGI (SF-268 CNS): 49.8 µM and 97 µM | GI50 (UACC-257 melanoma): 3.78 µM and 14.6 µM | TGI (UACC-257 melanoma): 15.3 µM and 31.1 µM | GI50 (RPMI-8226 leukemia): 12.2 µM | TGI (RPMI-8226 leukemia): 34.4 µM | GI50 (786-0 renal): 14.8 µM and 18 µM | TGI (786-0 renal): 32.8 µM and 62 µM | GI50 (SR leukemia): 0.421 µM | TGI (SR leukemia): 3.25 µM | GI50 (OVCAR-8 ovarian): 20.2 µM and 19.4 µM | TGI (OVCAR-8 ovarian): 54.8 µM and 71.3 µM | GI50 (M14 melanoma): 2.13 µM and 2.39 µM | TGI (M14 melanoma): 4.38 µM and 4.92 µM | GI50 (SW-620 colon): 22.5 µM and 33.5 µM | TGI (SW-620 colon): 54.4 µM and > 100 µM | GI50 (MALME-3M melanoma): 8.53 µM and 4.95 µM | TGI (MALME-3M melanoma): 21.1 µM and 20.1 µM

Oc1ccc2ccccc2c1N=Nc1cccc2ccccc12
TGI (NCI-H226 lung): > 100 µM | TGI (SF-268 CNS): > 100 µM | TGI (UACC-257 melanoma): > 100 µM | TGI (RPMI-8226 leukemia): > 100 µM | TGI (786-0 renal): > 100 µM | TGI (SR leukemia): > 100 µM | TGI (OVCAR-8 ovarian): > 100 µM | TGI (M14 melanoma): > 100 µM | TGI (SW-620 colon): > 100 µM | TGI (MALME-3M melanoma): > 100 µM

CCCCCCCCCCCC(=O)OCCOCCOCCOCCOCCOC(=O)CCCCCCCCCCC
TGI (NCI-H226 lung): > 100 µM | TGI (SF-268 CNS): > 100 µM | TGI (UACC-257 melanoma): > 100 µM | TGI (RPMI-8226 leukemia): > 100 µM | TGI (786-0 renal): > 100 µM | TGI (SR leukemia): > 100 µM | TGI (OVCAR-8 ovarian): > 100 µM | TGI (M14 melanoma): > 100 µM | TGI (SW-620 colon): > 100 µM | TGI (MALME-3M melanoma): > 100 µM

COCCOC(=O)C1=C(O)c2ccccc2S(=O)(=O)N1C
TGI (NCI-H226 lung): > 100 µM | TGI (SF-268 CNS): > 100 µM | TGI (UACC-257 melanoma): > 100 µM | TGI (RPMI-8226 leukemia): > 100 µM | TGI (786-0 renal): > 100 µM | TGI (SR leukemia): > 100 µM | TGI (OVCAR-8 ovarian): > 100 µM | TGI (M14 melanoma): > 100 µM | TGI (SW-620 colon): > 100 µM | TGI (MALME-3M melanoma): > 100 µM

COc1cc(C=O)c(-c2c(C=O)ccc3c2OCO3)c(OC)c1OC
TGI (NCI-H226 lung): > 100 µM | TGI (SF-268 CNS): > 100 µM | TGI (UACC-257 melanoma): > 100 µM | TGI (RPMI-8226 leukemia): > 100 µM | TGI (786-0 renal): > 100 µM | TGI (SR leukemia): > 100 µM | TGI (OVCAR-8 ovarian): > 100 µM | TGI (M14 melanoma): > 100 µM | TGI (SW-620 colon): > 100 µM | TGI (MALME-3M melanoma): > 100 µM

Cc1ccc(C2=C(c3ccc(C)cc3)C3(c4ccc(C)cc4)C4C(=O)OC(=O)C4C2(c2ccc(C)cc2)S3=O)cc1 (centres undefined)
GI50 (NCI-H226 lung): 11 µM | TGI (NCI-H226 lung): 48.3 µM | GI50 (SF-268 CNS): 38.5 µM | TGI (SF-268 CNS): > 100 µM | GI50 (UACC-257 melanoma): > 100 µM | TGI (UACC-257 melanoma): > 100 µM | GI50 (RPMI-8226 leukemia): 21.2 µM | TGI (RPMI-8226 leukemia): 89.5 µM | GI50 (786-0 renal): 6.91 µM | TGI (786-0 renal): 27.7 µM | GI50 (SR leukemia): 25.9 µM | TGI (SR leukemia): > 100 µM | GI50 (OVCAR-8 ovarian): 25.7 µM | TGI (OVCAR-8 ovarian): > 100 µM | GI50 (M14 melanoma): 9.7 µM | TGI (M14 melanoma): 32.8 µM | GI50 (SW-620 colon): 38.1 µM | TGI (SW-620 colon): > 100 µM | GI50 (MALME-3M melanoma): 27.9 µM | TGI (MALME-3M melanoma): 84 µM

Cc1ccc(S(=O)(=O)N=Nc2c(O)[nH]c3cc(O)c(C(=O)O)cc23)cc1
TGI (NCI-H226 lung): > 100 µM | TGI (SF-268 CNS): > 100 µM | TGI (UACC-257 melanoma): > 100 µM | TGI (RPMI-8226 leukemia): > 100 µM | TGI (786-0 renal): > 100 µM | TGI (SR leukemia): > 100 µM | TGI (OVCAR-8 ovarian): > 100 µM | TGI (M14 melanoma): > 100 µM | TGI (SW-620 colon): > 100 µM | TGI (MALME-3M melanoma): > 100 µM

O=C1N/C(=C\[N+](=O)[O-])c2ccccc21
TGI (NCI-H226 lung): > 100 µM | TGI (SF-268 CNS): > 100 µM | TGI (UACC-257 melanoma): > 100 µM | TGI (RPMI-8226 leukemia): > 100 µM | TGI (786-0 renal): > 100 µM | TGI (SR leukemia): > 100 µM | TGI (OVCAR-8 ovarian): > 100 µM | TGI (M14 melanoma): > 100 µM | TGI (SW-620 colon): > 100 µM | TGI (MALME-3M melanoma): > 100 µM

O=C(Nc1cccc(O)c1)C(=O)C1C(=O)NC(=S)NC1=O
TGI (NCI-H226 lung): > 100 µM | TGI (SF-268 CNS): > 100 µM | TGI (UACC-257 melanoma): > 100 µM | TGI (RPMI-8226 leukemia): > 100 µM | TGI (786-0 renal): > 100 µM | TGI (SR leukemia): > 100 µM | TGI (OVCAR-8 ovarian): > 100 µM | TGI (M14 melanoma): > 100 µM | TGI (SW-620 colon): > 100 µM | TGI (MALME-3M melanoma): > 100 µM

Cc1cn(-c2cc(NC(=O)c3cccc(C#Cc4cccc5[nH]nc(N)c45)c3)cc(C(F)(F)F)c2)cn1
GI50 (NCI-H226 lung): 0.771 µM | TGI (NCI-H226 lung): 61.2 µM | GI50 (SF-268 CNS): 4.81 µM | TGI (SF-268 CNS): > 100 µM | GI50 (UACC-257 melanoma): 6.59 µM | TGI (UACC-257 melanoma): 78.3 µM | GI50 (RPMI-8226 leukemia): 4.54 µM | TGI (RPMI-8226 leukemia): > 100 µM | GI50 (786-0 renal): 4.72 µM | TGI (786-0 renal): 20.6 µM | GI50 (SR leukemia): 5.06 µM | TGI (SR leukemia): > 100 µM | GI50 (OVCAR-8 ovarian): 4.99 µM | TGI (OVCAR-8 ovarian): 36.3 µM | GI50 (M14 melanoma): 2.48 µM | TGI (M14 melanoma): 17.4 µM | GI50 (SW-620 colon): 4.22 µM | TGI (SW-620 colon): > 100 µM | GI50 (MALME-3M melanoma): 1.81 µM | TGI (MALME-3M melanoma): 10.9 µM
